Tests used:
ATR kinase = ATR kinase (Homo sapiens, UniProt Q13535); experiment: Assay of ATR kinase activity (time-resolved fluorescence, phosphorylation of p53-derived protein); assay type: biochemical
Protocol: Biotinylated protein derived from p53 (Eurofins, art. No.: 14-952) was phosphorylated with ATR kinase. The amount of phosphorylated protein was determined by time-resolved fluorescence in this assay. The amount of phosphorylated protein was detected by anti-p53-phospho-(serine 15)-K-specific antibody (Cisbio, art. No.: 61GSTDLA) and d2 labeled anti-GST antibody (Cisbio, art. No. 61P08KAE). Before the assay, the following working solutions were formulated as required: 1×reaction buffer (20 mM HEPES PH8.0, 1% glycerol, 0.01% Brij-35), dilution buffer (20 mM HEPES PH8.0, 1% glycerol, 0.01% Brij-35, 5 mM DTT and 1% BSA), stop solution (20 mM HEPES PH8.0, 1% glycerol, 0.01% Brij-35, 250 mM EDTA), detection buffer (50 mM HEPES pH7.0, 150 mM NaCl, 267 mM KF, 0.1% sodium cholate, 0.01% Tween-20, 0.0125% sodium azide). The reagents used above were purchased from Sigma or Invitrogen, except for those whose manufacturers were mentioned.
Operations were as follows:
4× serially diluted compound solutions were prepared with 1× reaction buffer to give 9 compound solutions with different concentrations, and 2.5 μL of the 4× serially diluted compound solutions were added to a 384-well analysis plate (784075, Greiner). 4×p53 substrate working solution (40 nM) was prepared with 1× reaction buffer, and 2.5 μL of the 4×p53 substrate working solution was added to a 384-well analysis plate. 4×ATR/ATRIP working solution (12.8 ng/μL) was prepared with dilution buffer, and 2.5 μL of the 4×pATR/ATRIP working solution was added to a 384-well analysis plate. 4×ATP working solution (2 mM) was prepared with deionized water, and 2.5 μL of the 4×ATP working solution was added to a 384-well analysis plate. The plates were incubated at room temperature in dark for 30 minutes. 5 μL of stop solution was added to the 384 analysis plates. Finally, 5 μL of assay mixture (0.084 ng/μL Anti-phospho-p53(ser15)-K and 5 ng/μL Anti-GST-d2) was added to the 384 well analysis plates, and incubated at room temperature overnight. The fluorescence signal was detected with ENVISION (Perkinelmer) instrument (excitation wavelength: 320 nm, emission wavelength: 665 nm and 615 nm). The inhibition rate in each well was calculated by the fluorescence intensity value in each well:ER (Emission Ratio)=(Fluorescence intensity at 665 nm/Fluorescence intensity at 615 nm); inhibition rate=(ER of positive−ER of assay compound)/(ER of positive−ER of negative)×100%. IC50 values of compounds were calculated by standard software for parameter fitting (GraphPad Prism 6.0).

[1] = In vivo oral administration pharmacokinetics in mice; set-up: AUC: concentration or dose not given beside the values; conditions: mouse
From the text: Based on the in vitro activity results, representative compounds were selected for in vivo pharmacokinetic studies.
In Vivo Oral Administration—Pharmacokinetic Results in Mice: […]

TOV21G (ovarian cancer) = experiment: Cell proliferation inhibition in vitro, CellTiter-Glo, TOV21G; assay type: cell-based; conditions: Homo sapiens; TOV21G cells, 120 hours, CellTiter-Glo; read-out: TOV21G/IC50/μM
Protocol: (§1) By detecting the effect of compounds on cell activity in vitro in tumor cell lines TOV21G (ovarian cancer) and MV4-11 (leukemia), the inhibitory effect of compounds on cell proliferation was studied in this assay.
(§2) TOV21G cells and MV4-11 cells were purchased from American Type Culture Collection (ATCC).
TOV21G cells were cultured in MCDB105/M199 medium (containing 15% of FBS), and used for assaying when the cell confluence reached 85% or more. About 1000 cells were inoculated in each well of a 96-well culture plate, and cultured for 24 hours. Different concentrations (0-10 μM) of compounds to be assayed were added to treat the cells. Each group was assayed in triplicate. Blank wells (containing medium only) and control wells (inoculated cells without being treated with drug) were set. Cells were cultured for 120 hours. 40 μL of Cell Titer-Glo solutions (Promega, #G7573) were added to each well, and the cells were incubated with shaking for 20 min in the dark. 100 μL of solution was transferred from each well to a 96-well blank plate (Corning, #3917), and the luminescence value was read by Biotek Synergy H1 multifunctional microplate reader.

MV4-11 (leukemia) = experiment: Cell proliferation inhibition in vitro, CellTiter-Glo, MV4-11; assay type: cell-based; conditions: Homo sapiens; MV4-11 cells, 120 hours, CellTiter-Glo; read-out: MV4-11/IC50/μM
Protocol: as §1, §2
MV-4-11 cells were cultured in IMDM medium (containing 20% of FBS). About 10,000 cells were inoculated in each well of a 96-well culture plate, and treated by adding different concentrations (0-10 μM) of compounds to be assayed. Each group was assayed in triplicate. Blank wells (containing medium only) and control wells (inoculated cells without being treated with drug) were set. Cells were cultured for 120 hours. 40 μL of Cell Titer-Glo solutions were added to each well, and the cells were incubated with shaking for 20 min in the dark. 100 μL of solution was transferred from each well to a 96-well blank plate, and the luminescence value was read by Biotek Synergy HI multifunctional microplate reader. Inhibition rate (%)=100%×(control well−assay well)/(control well−blank well)

[2] = In vitro stability in mouse liver microsome; assay type: in vitro ADME; conditions: liver microsomes, read-out: Mouse liver microsome t1/2
From the text: (§3) Based on the in vitro activity results, representative compounds were selected for assay studies on the stability in liver microsome, and the results were as follows.

[3] = In vitro stability in human liver microsome; assay type: in vitro ADME; conditions: liver microsomes, read-out: Human liver microsome t1/2
From the text: as §3

DNA-PK = DNA-PK (Homo sapiens, UniProt P78527); experiment: Kinase selectivity: inhibitory activity against DNA-PK; assay type: biochemical; conditions: 10 concentrations, 10 μM to 0.51 nM; read-out: IC50/DNAPK
Protocol: (§4) The compound of the present disclosure was assayed for inhibition of the same family (ATM, DNA-PK and mTOR):
(§5) According to the assay method reported in the literature, the compound to be assayed was serially diluted 3-fold to 0.51 nM starting from 10 μM (a total of 10 concentrations), and assayed for the inhibitory activities against kinases ATM^1, DNA-PK^2 and mTOR^3, respectively.

mTOR = mTOR (Homo sapiens, UniProt P42345); experiment: Kinase selectivity: inhibitory activity against mTOR; assay type: biochemical; conditions: 10 concentrations, 10 μM to 0.51 nM
Protocol: as §4, §5

ATM = ATM (Homo sapiens, UniProt Q13315); experiment: Kinase selectivity: inhibitory activity against ATM; assay type: biochemical; conditions: 10 concentrations, 10 μM to 0.51 nM
Protocol: as §4, §5

ATR kinase, sequence (Q13535 whole entry): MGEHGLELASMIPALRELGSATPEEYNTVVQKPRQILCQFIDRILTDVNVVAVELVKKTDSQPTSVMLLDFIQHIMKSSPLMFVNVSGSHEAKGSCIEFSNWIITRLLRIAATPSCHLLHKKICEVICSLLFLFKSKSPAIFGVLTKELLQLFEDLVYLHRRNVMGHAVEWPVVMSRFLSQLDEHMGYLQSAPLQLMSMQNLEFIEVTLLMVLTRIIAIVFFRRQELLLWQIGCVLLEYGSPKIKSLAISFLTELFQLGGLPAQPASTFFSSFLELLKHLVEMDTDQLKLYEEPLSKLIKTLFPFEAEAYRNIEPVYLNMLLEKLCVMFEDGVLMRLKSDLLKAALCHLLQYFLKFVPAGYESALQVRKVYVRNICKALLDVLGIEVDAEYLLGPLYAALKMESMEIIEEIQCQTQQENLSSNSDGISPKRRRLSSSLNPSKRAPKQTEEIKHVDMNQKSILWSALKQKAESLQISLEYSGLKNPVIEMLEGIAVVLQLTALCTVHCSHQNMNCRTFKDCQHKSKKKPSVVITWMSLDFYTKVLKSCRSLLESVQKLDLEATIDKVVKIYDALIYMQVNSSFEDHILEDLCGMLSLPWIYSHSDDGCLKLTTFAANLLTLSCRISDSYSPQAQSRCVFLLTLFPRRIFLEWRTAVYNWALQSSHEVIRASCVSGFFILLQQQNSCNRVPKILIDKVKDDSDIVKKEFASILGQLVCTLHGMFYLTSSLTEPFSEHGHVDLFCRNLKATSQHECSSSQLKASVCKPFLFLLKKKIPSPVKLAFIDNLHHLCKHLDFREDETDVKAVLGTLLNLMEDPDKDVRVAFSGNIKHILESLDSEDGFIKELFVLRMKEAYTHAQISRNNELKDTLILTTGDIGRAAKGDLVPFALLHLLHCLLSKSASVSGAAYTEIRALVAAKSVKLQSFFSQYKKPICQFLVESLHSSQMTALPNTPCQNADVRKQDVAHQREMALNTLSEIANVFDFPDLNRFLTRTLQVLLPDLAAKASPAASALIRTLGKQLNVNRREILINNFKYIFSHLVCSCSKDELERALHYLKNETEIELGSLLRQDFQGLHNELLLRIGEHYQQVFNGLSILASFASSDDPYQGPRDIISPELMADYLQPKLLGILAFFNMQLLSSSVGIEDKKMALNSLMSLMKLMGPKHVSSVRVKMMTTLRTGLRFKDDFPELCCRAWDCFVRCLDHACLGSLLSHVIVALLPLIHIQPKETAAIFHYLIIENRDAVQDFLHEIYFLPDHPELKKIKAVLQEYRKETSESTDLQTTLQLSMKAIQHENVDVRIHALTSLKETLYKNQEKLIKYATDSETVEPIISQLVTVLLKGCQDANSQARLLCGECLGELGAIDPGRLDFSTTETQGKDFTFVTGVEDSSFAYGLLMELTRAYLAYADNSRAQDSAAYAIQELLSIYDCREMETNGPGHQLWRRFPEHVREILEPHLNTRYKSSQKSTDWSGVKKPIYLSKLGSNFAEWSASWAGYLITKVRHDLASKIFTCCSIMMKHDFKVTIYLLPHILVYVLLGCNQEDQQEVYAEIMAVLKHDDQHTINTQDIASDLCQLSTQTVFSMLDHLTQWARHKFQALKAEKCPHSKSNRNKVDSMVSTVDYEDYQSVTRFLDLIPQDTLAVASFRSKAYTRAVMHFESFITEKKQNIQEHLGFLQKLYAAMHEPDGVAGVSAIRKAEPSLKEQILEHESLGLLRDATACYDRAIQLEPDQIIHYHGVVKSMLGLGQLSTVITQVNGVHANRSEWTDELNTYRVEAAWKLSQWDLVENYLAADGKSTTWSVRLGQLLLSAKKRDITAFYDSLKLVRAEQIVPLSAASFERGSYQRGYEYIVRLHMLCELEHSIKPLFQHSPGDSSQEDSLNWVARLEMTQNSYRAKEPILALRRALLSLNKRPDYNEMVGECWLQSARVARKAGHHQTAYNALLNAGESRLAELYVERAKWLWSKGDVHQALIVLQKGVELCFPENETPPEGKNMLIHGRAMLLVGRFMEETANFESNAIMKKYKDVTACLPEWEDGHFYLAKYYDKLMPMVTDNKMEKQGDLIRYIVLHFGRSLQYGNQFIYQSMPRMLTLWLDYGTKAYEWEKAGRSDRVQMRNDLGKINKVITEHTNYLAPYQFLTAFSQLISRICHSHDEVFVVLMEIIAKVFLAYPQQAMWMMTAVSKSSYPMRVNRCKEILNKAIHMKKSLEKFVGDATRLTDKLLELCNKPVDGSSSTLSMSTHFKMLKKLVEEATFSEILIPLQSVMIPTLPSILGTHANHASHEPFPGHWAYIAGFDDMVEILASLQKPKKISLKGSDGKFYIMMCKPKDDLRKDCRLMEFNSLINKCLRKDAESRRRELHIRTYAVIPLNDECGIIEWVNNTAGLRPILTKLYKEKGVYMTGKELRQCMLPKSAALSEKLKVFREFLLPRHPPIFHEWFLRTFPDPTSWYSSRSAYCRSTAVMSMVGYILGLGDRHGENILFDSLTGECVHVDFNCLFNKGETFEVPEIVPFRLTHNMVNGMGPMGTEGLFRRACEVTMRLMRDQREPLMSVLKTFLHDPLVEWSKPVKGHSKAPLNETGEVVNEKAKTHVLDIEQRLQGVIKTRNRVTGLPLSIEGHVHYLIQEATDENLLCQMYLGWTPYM
ATR kinase, sequence (Q8WXE1 whole entry partner): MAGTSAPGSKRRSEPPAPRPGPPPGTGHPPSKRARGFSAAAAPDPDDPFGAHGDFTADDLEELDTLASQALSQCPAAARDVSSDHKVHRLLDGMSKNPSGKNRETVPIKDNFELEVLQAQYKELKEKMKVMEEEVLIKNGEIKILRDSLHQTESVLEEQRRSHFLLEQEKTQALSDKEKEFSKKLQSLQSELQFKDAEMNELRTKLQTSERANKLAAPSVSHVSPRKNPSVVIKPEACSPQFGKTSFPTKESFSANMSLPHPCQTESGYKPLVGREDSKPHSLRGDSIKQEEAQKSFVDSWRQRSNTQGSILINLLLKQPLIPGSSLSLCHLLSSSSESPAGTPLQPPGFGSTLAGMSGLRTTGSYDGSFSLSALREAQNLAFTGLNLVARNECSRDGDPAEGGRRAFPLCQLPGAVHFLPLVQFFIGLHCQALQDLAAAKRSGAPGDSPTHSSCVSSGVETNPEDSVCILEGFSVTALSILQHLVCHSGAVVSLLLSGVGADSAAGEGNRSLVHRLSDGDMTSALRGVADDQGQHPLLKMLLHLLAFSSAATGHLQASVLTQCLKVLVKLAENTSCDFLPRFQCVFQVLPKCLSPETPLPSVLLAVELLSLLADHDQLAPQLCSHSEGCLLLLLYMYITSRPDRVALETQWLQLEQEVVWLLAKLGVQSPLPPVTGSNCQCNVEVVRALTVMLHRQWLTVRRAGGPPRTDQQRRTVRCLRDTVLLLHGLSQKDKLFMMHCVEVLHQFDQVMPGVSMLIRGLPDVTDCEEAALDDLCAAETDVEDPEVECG

SMILES | IC50 (ATR kinase) [nM] | AUC [1] [ng·h/mL] | Cmax [1] [ng/mL] | Tmax [1] [h] | half-life [1] [h] | IC50 (TOV21G (ovarian cancer)) [µM] | IC50 (MV4-11 (leukemia)) [µM] | half-life [2] [h] | half-life [3] [h] | IC50 (DNA-PK) [nM] | IC50 (mTOR) [nM] | IC50 (ATM) [nM]
CNc1nc2ccccc2n1-c1nc(-c2c(C)nn(-c3cncc(F)c3)c2C)cc(N2CCOC[C@H]2C)n1 [Compound B1] | 11 | 8750 | 1450 | 2.8 | 4.3 | 0.194 | 0.231 | – | – | – | – | –
Cc1nn(-c2cncc(F)c2)c(C)c1-c1cc(N2CCOC[C@H]2C)nc(-c2cccc3[nH]ccc23)n1 [Compound A17] | 5 | 8210 | 815 | 1.75 | 2.3 | 0.196 | 0.19 | 1.02 | 1.08 | – | – | –
Cc1nn(-c2cncc(F)c2)c(C)c1-c1cc(N2CCOC[C@H]2C)nc(-c2cc(F)cc3[nH]ccc23)n1 [Compound A11] | 10 | 15200 | 1470 | 3.3 | 3 | 0.291 | 0.214 | 2.23 | 0.733 | – | – | –
Cc1nn(-c2cncc(F)c2)c(C)c1-c1cc(N2CCOC[C@H]2C)nc(-c2cc(CO)cc3[nH]ccc23)n1 [Compound A22] | 5 | 1200 | 865 | 0.33 | 1.4 | 0.457 | 0.169 | – | – | 284 | 1160 | 2590
Cc1nn(-c2cncc(F)c2)c(C)c1-c1cc(C23CCOCC2C3)nc(-c2cc(F)cc3[nH]ccc23)n1 (stereo not drawn) [Compound C2] | 13 | – | – | – | – | 1.07 | 0.896 | – | – | – | – | –
Cc1nn(-c2cncc(C(F)F)c2)c(C)c1-c1cc(N2CCOC[C@H]2C)nc(-c2ccnc3[nH]ccc23)n1 [Compound A21] | 6 | – | – | – | – | 0.537 | 0.332 | – | – | – | – | –
Cc1nn(-c2cncc(C#N)c2)c(C)c1-c1cc(N2CCOC[C@H]2C)nc(-c2cc(F)cc3[nH]ccc23)n1 [Compound A9] | 16 | – | – | – | – | 0.28 | 0.198 | – | – | – | – | –
Cc1nn(-c2cnccc2F)c(C)c1-c1cc(N2CCOC[C@H]2C)nc(-c2cc(F)cc3[nH]ccc23)n1 [Compound A14] | 9 | – | – | – | – | 0.522 | 0.231 | – | – | – | – | –
Cc1nn(-c2cncc(F)c2)c(C)c1-c1cc(C23CCOCC2C3)nc(-c2cccc3[nH]ccc23)n1 (stereo not drawn) [Compound C3] | 16 | – | – | – | – | 0.667 | 0.632 | – | – | – | – | –
CC#Cc1cncc(-n2nc(C)c(-c3cc(N4CCOC[C@H]4C)nc(-n4c(NC)nc5ccccc54)n3)c2C)c1 [Compound B8] | 69 | – | – | – | – | 0.212 | 0.519 | – | – | – | – | –
COc1ccc(-n2nc(C)c(-c3cc(N4CCOC[C@H]4C)nc(-c4cc(F)cc5[nH]ccc45)n3)c2C)cn1 [Compound A5] | 30 | – | – | – | – | 0.647 | 0.778 | – | – | – | – | –
Cc1nn(-c2cncc(Cl)c2)c(C)c1-c1cc(N2CCOC[C@H]2C)nc(-c2ccnc3[nH]ccc23)n1 [Compound A18] | 1 | – | – | – | – | 0.208 | 0.451 | – | – | – | – | –
Cc1nn(-c2cncc(F)c2)c(C)c1-c1cc(N2CCOC[C@H]2C)nc(-c2ccnc3[nH]ccc23)n1 [Compound A19] | 2 | 1730 | 331 | 1 | 2.4 | 0.237 | 0.312 | – | – | – | – | –
CNc1nc2ccccc2n1-c1nc(-c2c(C)nn(-c3cnc(N)c(F)c3)c2C)cc(N2CCOC[C@H]2C)n1 [Compound B5] | 16 | – | – | – | – | 0.383 | 0.208 | – | – | – | – | –
Cc1nn(-c2ccncc2)c(C)c1-c1cc(N2CCOC[C@H]2C)nc(-c2cc(F)cc3[nH]ccc23)n1 [Compound A2] | 8 | – | – | – | – | 0.397 | 0.635 | – | – | – | – | –
Cc1nn(-c2ccc(F)nc2)c(C)c1-c1cc(N2CCOC[C@H]2C)nc(-c2cc(F)cc3[nH]ccc23)n1 [Compound A6] | 14 | – | – | – | – | 0.423 | 0.656 | – | – | – | – | –
Cc1nn(-c2ccnnc2)c(C)c1-c1cc(N2CCOC[C@H]2C)nc(-c2cc(F)cc3[nH]ccc23)n1 [Compound A15] | 2 | – | – | – | – | 0.234 | 0.107 | – | – | – | – | –
CNc1nc2ccccc2n1-c1nc(-c2c(C)nn(-c3cncc(Cl)c3)c2C)cc(N2CCOC[C@H]2C)n1 [Compound B3] | 49 | – | – | – | – | 0.411 | 0.303 | – | – | – | – | –
Cc1nn(-c2cncc(O)c2)c(C)c1-c1cc(N2CCOC[C@H]2C)nc(-c2cccc3[nH]ccc23)n1 [Compound A23] | 3 | – | – | – | – | 0.24 | 0.175 | – | – | – | – | –
